According to patent EP1311486B1, “USES OF THALIPORPHINE OR ITS DERIVATIVES IN TREATMENT OF CARDIAC DISEASES AND PREPARATION OF SAME” (Lotus Pharmaceutical Co., Ltd., priority 2000, dated 2002):

Legend:
AV node conduction = assay: His bundle electrogram of isolated heart, Langendorff perfusion, atrial pacing at 300 ms cycle length; set-up: species or system rats and guinea pigs; settings: for atrial effective refractory period (AERP): before drug THP 60 ms, quinidine 40 ms; for ventricular effective refractory period (VERP): before drug THP 160 ms, quinidine 180 ms; for AV node effective refractory period (AVNERP): before drug THP 170 ms, quinidine 130 ms; for wenckbach cycle length (WCL): before drug THP 200 ms, quinidine 150 ms
Procedure: The investigation conforms to the Guide for the Care and Use of Laboratory Animals published by the US National Institutes of Health (NIH publication No. 85-23, revised 1996). Adult rats and guinea pigs were killed after hepariniation and anesthetization with urethane (1.25 g/kg i.p.). After isolating the heart, the aorta was perfused with 10µM quinidine and THP, respectively, by Langendorff perfusion. A pair of bipolar electrodes connected with silver wire were placed on the tip of the Triangle of Koch to record the His bundle electrogram. In addition, another pair of bipolar electrodes connected with silver wire were placed on the surface of the right ventricle to record T wave. […] The QT interval, conduction time through the sinoatrial (SA interval), the atrioventricular node (AH interval) and His-purkinje system (HV interval) were recorded, respectively, using electrocardiograph. Similarly, the recovery curve of His-purkinje system (i.e. the relationship of H2V2 and V1H2), atrial and ventricular refractory period and AV node refractory period were also recorded in the same manner. 1 and 2.
The SA, AH, HV intervals and T wave are prolonged in the quinidine-treated heart (FIG. 1). […] In addition, 3, 10 and 30µM THP can prolong the atrial effective refractory period (AERP) from 60 ms to 90, 100 and 120 ms, respectively; the ventricular effective refractory period (VERP) from 160 ms to 160, 170 and 190 ms, respectively; and the AV node effective refractory period (AVNERP) from 170 ms to 170, 200 and 240 ms, respectively. When compared with THP in the same manner, 3,10 and 30µM quinidine can prolong the AERP from 40 ms to 60, 80 and 130 ms; the VERP from 180 ms to 170, 180 and 190 ms; and the AVNERP from 130 ms to 150, 200 and 245 ms, respectively. Further, 3, 10 and 30µM THP can change the wenckbach cycle length (WCL) from 200 ms to 210, 230 and 280 ms, respectively; whereas 3, 10 and 30µM quinidine can change the WCL from 150 ms to 170, 210 and 300 ms, respectively. Both THP and quinidine prolong AERP, VERP and AVNERP, however, only quinidine inhibits conduction in AV node (prolonged AH interval). In contrast, even when the THP concentration raised to 10µM, the conduction in AV node is not inhibited.

[1] = tested on: guinea pig right ventricular strips; assay: Ouabain-induced arrhythmia in electrically driven right ventricular strips; settings: 10-20µM after 0.6-0.8µM ouabain
Procedure: The arrhythmia was then induced 5-10 minutes after. 10-20µM THP or its derivatives were administered to reverse the ouabain-induced arrhythmia. 6-7.
Referring to FIGs. […] The arrhythmia is then induced 5-10 minutes after.

[2] = tested on: rats subjected to 4 hours coronary ligation; assay: Area at risk and infarct size after 4 hours coronary ligation (triphenyl tetrazolium chloride-Evan's blue staining); type: in vivo, rat; settings: L-NAME 1x10^-3 g/kg
Procedure: Infarct size was determined by the triphenyl tetrazolium chloride-Evan's blue staining technique. The rat was sacrificed after its left descending coronary artery had been occluded for 4 hours. The weight of infarct tissue was expressed as a percentage of total ventricular weight or occluded zone. The difference in infarct size was statistically analyzed using unpaired Student's t-test. Table 4 Area at risk and infarct size in vehicle and THP-treated rats subjected to 4 hours coronary ligation
The difference in ischemic area and infarct size shown by staining technique after 4 hours of ischemia is evaluated. […] In the vehicle group, the necrotic area expresses either as a percentage of the area at risk (45.2±1.0%) or as a percentage of the total ventricle (19.8±2.2%), indicating the amount of cardiac tissue at risk becomes necrotic. Administration of THP reduces myocardial necrosis extension in a dose dependent manner. This reduction is observed either in the necrotic area/area at risk (38.1±5.0%, 29.0±2.5% and 10.7±1.8%/with 3.5x10^-7, 10^-6, 10^-5 g/kg of THP, respectively) or in the necrotic area/total ventricle (17.9+2.3%, 13.4±1.2% and 5.0±0.9% with 3.5x10^-7, 10^-6, 10^-5 g/kg of THP, respectively).

| SMILES | atrial effective refractory period (AERP) (AV node conduction; 3µM) [ms] | ventricular effective refractory period (VERP) (AV node conduction; 3µM) [ms] | AV node effective refractory period (AVNERP) (AV node conduction; 3µM) [ms] | wenckbach cycle length (WCL) (AV node conduction; 3µM) [ms] | AH interval (conduction in AV node) (AV node conduction; 10µM, isolated perfused heart) | HV interval (AV node conduction; 10µM, isolated perfused heart) | SA interval (AV node conduction; 10µM, isolated perfused heart) | T wave (AV node conduction; 10µM, isolated perfused heart) | atrial effective refractory period (AERP) (AV node conduction; 10µM) [ms] | ventricular effective refractory period (VERP) (AV node conduction; 10µM) [ms] | AV node effective refractory period (AVNERP) (AV node conduction; 10µM) [ms] | wenckbach cycle length (WCL) (AV node conduction; 10µM) [ms] | atrial effective refractory period (AERP) (AV node conduction; 30µM) [ms] | ventricular effective refractory period (VERP) (AV node conduction; 30µM) [ms] | AV node effective refractory period (AVNERP) (AV node conduction; 30µM) [ms] | wenckbach cycle length (WCL) (AV node conduction; 30µM) [ms] | reversal of ouabain-induced arrhythmia [1] | Area at risk (% of ventricle) [2] | Necrotic (% of Area at risk) [2] | Necrotic (% of ventricle) [2] |
| --- | --- | --- | --- | --- | --- | --- | --- | --- | --- | --- | --- | --- | --- | --- | --- | --- | --- | --- | --- | --- |
| C=C[C@H]1C[N@@]2CC[C@H]1C[C@@H]2[C@@H](O)c1ccnc2ccc(OC)cc12 [quinidine] | 60 | 170 | 150 | 170 | prolonged | prolonged | prolonged | prolonged | 80 | 180 | 200 | 210 | 130 | 190 | 245 | 300 | does not reveal the efficacy |  |  |  |
| COC(=O)[C@@H](N)CCCNC(=N)N[N+](=O)[O-] [L-NAME, N^∞-nitro-L-arginine methyl ester, reference compound] |  |  |  |  |  |  |  |  |  |  |  |  |  |  |  |  |  | 47.5±0.2 % of ventricle | 45.1±7.2 % of Area at risk | 21.4±3.5 % of ventricle |
